Tests used:
female NMRI mice = assay: Anorectic action: cumulative milk consumption after removal of feed for 24 hours; assay type: in vivo; details: for cumulative milk consumption by treated animals: evaporated milk, monitored for 7 hours; for Reduction in cumulative milk consumption as % of the contol: vs control animals
Experimental: The anorectic action was tested on female NMRI mice. After removal of feed for 24 hours, the preparation to be tested was administered intraperitoneally (ip) or by gavage (po). The animals were housed singly and, with free access to drinking water, they were offered evaporated milk 30 minutes after administration of the preparation. The consumption of evaporated milk was determined and the general behavior of the animals was monitored every half an hour for 7 hours. The measured milk consumption was compared to that of vehicle-treated control animals.

## CSC1Cc2cc(Cl)ccc2C1=O (stereo not shown) [Example 1, 5-Chloro-2-methylsulfanylindan-1-one]
Female NMRI mice; 10 mg/kg ip
  cumulative milk consumption by treated animals: 05/1.20 ml
  Reduction in cumulative milk consumption as % of the contol: 64%
other
  melting point: 90 °C

## CS(=O)(=O)C1Cc2cc(Cl)ccc2C1=O (stereo not shown) [Example 2, 5-Chloro-2-methanesulfonylindan-1-one]
Female NMRI mice; 20 mg/kg ip
  cumulative milk consumption by treated animals: 05/1.16 ml
  Reduction in cumulative milk consumption as % of the contol: 70%

## O=C1c2ccc(Cl)cc2CC1Sc1ccccc1 (stereo not shown) [Example 3, 5-chloro-2-phenylsulfanylindan-1-one]
other
  melting point: 89 °C

## O=C1c2ccc(Cl)cc2CC1S(=O)(=O)c1ccccc1 (stereo not shown) [Example 4, 2-benzenesulfonyl-5-chloroindan-1-one]
other
  melting point: 133 °C

## C[S+]([O-])C1Cc2cc(Cl)ccc2C1=O (stereo not shown) [Example 9, 5-chloro-2-methanesulfinylindan-1-one]
Female NMRI mice; 50 mg/kg po
  cumulative milk consumption by treated animals: 05/1.16 ml
  Reduction in cumulative milk consumption as % of the contol: 73%
other
  melting point: 228.87 °C
